Measurements published in ChEMBL document CHEMBL2434896, “Carbonic anhydrase inhibitors. Synthesis of heterocyclic 4-substituted pyridine-3-sulfonamide derivatives and their inhibition of the human cytosolic isozymes I and II and transmembrane tumor-associated isozymes IX and XII” (Eur J Med Chem, 2013).
Active and inactive are the calls of the source. The calls are words filed in the database; no cut-off is given here.

Key:
RPMI-8226 = assay: Growth inhibition of human RPMI8226 cells at 10 uM after 48 hrs by sulforhodamine B assay; type: functional; conditions: RPMI-8226, 48 h, read-out: GI
T47D = assay: Growth inhibition of human T47D cells at 10 uM after 48 hrs by sulforhodamine B assay; type: functional; conditions: read-out: GI
SK-MEL-28 = assay: Growth inhibition of human SK-MEL-28 cells at 10 uM after 48 hrs by sulforhodamine B assay; type: functional, cell-based
SK-OV-3 = assay: Growth inhibition of human SKOV3 cells at 10 uM after 48 hrs by sulforhodamine B assay; type: functional
NCI/ADR-RES = assay: Growth inhibition of human NCI-ADR-RES cells at 10 uM after 48 hrs by sulforhodamine B assay; type: functional
786-0 = assay: Growth inhibition of human 786-0 cells at 10 uM after 48 hrs by sulforhodamine B assay; type: functional
ACHN = assay: Growth inhibition of human ACHN cells at 10 uM after 48 hrs by sulforhodamine B assay; type: functional
COLO 205 = assay: Growth inhibition of human COLO205 cells at 10 uM after 48 hrs by sulforhodamine B assay; type: functional
HCT-15 = assay: Growth inhibition of human HCT15 cells at 10 uM after 48 hrs by sulforhodamine B assay; type: functional
Carbonic anhydrase 9 = Carbonic anhydrase 9 (Homo sapiens, UniProt Q16790); assay: Inhibition of human carbonic anhydrase 9 after 15 mins by stopped flow CO2 hydration assay
HT-29 = assay: Growth inhibition of human HT-29 cells at 10 uM after 48 hrs by sulforhodamine B assay; type: functional
[1] = Growth inhibition of human EKVX cells at 10 uM after 48 hrs by sulforhodamine B assay; type: functional; conditions: read-out: GI
PC-3 = assay: Growth inhibition of human PC3 cells at 10 uM after 48 hrs by sulforhodamine B assay; type: functional
MDA-MB-231 = assay: Growth inhibition of human MDA-MB-231 cells at 10 uM after 48 hrs by sulforhodamine B assay; type: functional
NCI-H23 = assay: Growth inhibition of human NCI-H23 cells at 10 uM after 48 hrs by sulforhodamine B assay; type: functional
HL-60(TB) = assay: Growth inhibition of human HL-60(TB) cells at 10 uM after 48 hrs by sulforhodamine B assay; type: functional; conditions: HL-60, 48 h, read-out: GI
HCC 2998 = assay: Growth inhibition of human HCC2998 cells at 10 uM after 48 hrs by sulforhodamine B assay; type: functional
SK-MEL-2 = assay: Growth inhibition of human SK-MEL-2 cells at 10 uM after 48 hrs by sulforhodamine B assay; type: functional
HOP-92 = assay: Growth inhibition of human HOP92 cells at 10 uM after 48 hrs by sulforhodamine B assay; type: functional
IGROV-1 = assay: Growth inhibition of human IGROV1 cells at 10 uM after 48 hrs by sulforhodamine B assay; type: functional
SN12C = assay: Growth inhibition of human SN12C cells at 10 uM after 48 hrs by sulforhodamine B assay; type: functional
NCI-H226 = assay: Growth inhibition of human NCI-H226 cells at 10 uM after 48 hrs by sulforhodamine B assay; type: functional
HOP-62 = assay: Growth inhibition of human HOP62 cells at 10 uM after 48 hrs by sulforhodamine B assay; type: functional
SNB-19 = assay: Growth inhibition of human SNB19 cells at 10 uM after 48 hrs by sulforhodamine B assay; type: functional
M14 = assay: Growth inhibition of human M14 cells at 10 uM after 48 hrs by sulforhodamine B assay; type: functional
Malme-3M = assay: Growth inhibition of human MALME-3M cells at 10 uM after 48 hrs by sulforhodamine B assay; type: functional; conditions: read-out: GI
MDA-MB-435 = assay: Growth inhibition of human MDA-MB-435 cells at 10 uM after 48 hrs by sulforhodamine B assay; type: functional
SNB-75 = assay: Growth inhibition of human SNB75 cells at 10 uM after 48 hrs by sulforhodamine B assay; type: functional; conditions: SNB-75, 48 h, read-out: GI
NCI-H322M = assay: Growth inhibition of human NCI-H322M cells at 10 uM after 48 hrs by sulforhodamine B assay; type: functional
TK-10 = assay: Growth inhibition of human TK10 cells at 10 uM after 48 hrs by sulforhodamine B assay; type: functional
LOX IMVI = assay: Growth inhibition of human LOXIMVI cells at 10 uM after 48 hrs by sulforhodamine B assay; type: functional
SF-295 = assay: Growth inhibition of human SF295 cells at 10 uM after 48 hrs by sulforhodamine B assay; type: functional; conditions: SF-295, 48 h, read-out: GI
OVCAR-5 = assay: Growth inhibition of human OVCAR5 cells at 10 uM after 48 hrs by sulforhodamine B assay; type: functional
SK-MEL-5 = assay: Growth inhibition of human SK-MEL-5 cells at 10 uM after 48 hrs by sulforhodamine B assay; type: functional
SF-539 = assay: Growth inhibition of human SF539 cells at 10 uM after 48 hrs by sulforhodamine B assay; type: functional; conditions: SF-539, 48 h, read-out: GI
Hs-578T = assay: Growth inhibition of human Hs 578T cells at 10 uM after 48 hrs by sulforhodamine B assay; type: functional
SF-268 = assay: Growth inhibition of human SF268 cells at 10 uM after 48 hrs by sulforhodamine B assay; type: functional
SR = assay: Growth inhibition of human SR cells at 10 uM after 48 hrs by sulforhodamine B assay; type: functional; conditions: read-out: GI
NCI-H460 = assay: Growth inhibition of human NCI-H460 cells at 10 uM after 48 hrs by sulforhodamine B assay; type: functional
HCT-116 = assay: Growth inhibition of human HCT116 cells at 10 uM after 48 hrs by sulforhodamine B assay; type: functional; conditions: HCT-116, 48 h, read-out: GI
KM12 = assay: Growth inhibition of human KM12 cells at 10 uM after 48 hrs by sulforhodamine B assay; type: functional
MDA-MB-468 = assay: Growth inhibition of human MDA-MB-468 cells at 10 uM after 48 hrs by sulforhodamine B assay; type: functional
CAKI-1 = assay: Growth inhibition of human CAKI-1 cells at 10 uM after 48 hrs by sulforhodamine B assay; type: functional; conditions: CAKI-1, 48 h, read-out: GI
K562 = assay: Growth inhibition of human K562 cells at 10 uM after 48 hrs by sulforhodamine B assay; type: functional
CCRF-CEM = assay: Growth inhibition of human CCRF-CEM cells at 10 uM after 48 hrs by sulforhodamine B assay; type: functional; conditions: read-out: GI
MCF7 = assay: Growth inhibition of human MCF7 cells at 10 uM after 48 hrs by sulforhodamine B assay; type: functional
SW-620 = assay: Growth inhibition of human SW620 cells at 10 uM after 48 hrs by sulforhodamine B assay; type: functional
RXF 393 = assay: Growth inhibition of human RXF393 cells at 10 uM after 48 hrs by sulforhodamine B assay; type: functional
DU-145 = assay: Growth inhibition of human DU145 cells at 10 uM after 48 hrs by sulforhodamine B assay; type: functional
OVCAR-4 = assay: Growth inhibition of human OVCAR4 cells at 10 uM after 48 hrs by sulforhodamine B assay; type: functional
UO-31 = assay: Growth inhibition of human UO31 cells at 10 uM after 48 hrs by sulforhodamine B assay; type: functional; conditions: UO-31, 48 h, read-out: GI
BT-549 = assay: Growth inhibition of human BT549 cells at 10 uM after 48 hrs by sulforhodamine B assay; type: functional; conditions: BT-549, 48 h, read-out: GI
OVCAR-3 = assay: Growth inhibition of human OVCAR3 cells at 10 uM after 48 hrs by sulforhodamine B assay; type: functional
NCI-H522 = assay: Growth inhibition of human NCI-H522 cells at 10 uM after 48 hrs by sulforhodamine B assay; type: functional; conditions: NCI-H522, 48 h, read-out: GI
A498 = assay: Growth inhibition of human A498 cells at 10 uM after 48 hrs by sulforhodamine B assay; type: functional
UACC-62 = assay: Growth inhibition of human UACC62 cells at 10 uM after 48 hrs by sulforhodamine B assay; type: functional
MOLT-4 = assay: Growth inhibition of human MOLT4 cells at 10 uM after 48 hrs by sulforhodamine B assay; type: functional; conditions: MOLT-4, 48 h, read-out: GI

SMILES: NS(=O)(=O)c1cnccc1N1CCN(c2ccccc2)CC1
- inhibition of growth at 10 µM (RPMI-8226): 10%
- inhibition of growth at 10 µM (T47D): 1%
- growth inhibition (GI) (SK-MEL-28): inactive
- growth inhibition (GI) (SK-OV-3): inactive
- growth inhibition (GI) (NCI/ADR-RES): inactive
- growth inhibition (GI) (786-0): inactive
- growth inhibition (GI) (ACHN): inactive
- growth inhibition (GI) (COLO 205): inactive
- growth inhibition (GI) (HCT-15): inactive
- Ki (Carbonic anhydrase 9): 124 nM
- growth inhibition (GI) (HT-29): inactive
- inhibition of growth at 10 µM [1]: 4%
- growth inhibition (GI) (PC-3): inactive
- growth inhibition (GI) (MDA-MB-231): inactive
- growth inhibition (GI) (NCI-H23): inactive
- inhibition of growth at 10 µM (HL-60(TB)): 2%
- growth inhibition (GI) (HCC 2998): inactive
- growth inhibition (GI) (SK-MEL-2): inactive
- growth inhibition (GI) (HOP-92): inactive
- growth inhibition (GI) (IGROV-1): inactive
- growth inhibition (GI) (SN12C): inactive
- growth inhibition (GI) (NCI-H226): inactive
- growth inhibition (GI) (HOP-62): inactive
- growth inhibition (GI) (SNB-19): inactive
- growth inhibition (GI) (M14): inactive
- inhibition of growth at 10 µM (Malme-3M): 8%
- growth inhibition (GI) (MDA-MB-435): inactive
- inhibition of growth at 10 µM (SNB-75): 1%
- growth inhibition (GI) (NCI-H322M): inactive
- growth inhibition (GI) (TK-10): inactive
- growth inhibition (GI) (LOX IMVI): inactive
- inhibition of growth at 10 µM (SF-295): 4%
- growth inhibition (GI) (OVCAR-5): inactive
- growth inhibition (GI) (SK-MEL-5): inactive
- inhibition of growth at 10 µM (SF-539): 3%
- growth inhibition (GI) (Hs-578T): inactive
- growth inhibition (GI) (SF-268): inactive
- inhibition of growth at 10 µM (SR): 8%
- growth inhibition (GI) (NCI-H460): inactive
- inhibition of growth at 10 µM (HCT-116): 1%
- growth inhibition (GI) (KM12): inactive
- growth inhibition (GI) (MDA-MB-468): inactive
- inhibition of growth at 10 µM (CAKI-1): 8%
- growth inhibition (GI) (K562): inactive
- inhibition of growth at 10 µM (CCRF-CEM): 7%
- growth inhibition (GI) (MCF7): inactive
- growth inhibition (GI) (SW-620): inactive
- growth inhibition (GI) (RXF 393): inactive
- growth inhibition (GI) (DU-145): inactive
- growth inhibition (GI) (OVCAR-4): inactive
- inhibition of growth at 10 µM (UO-31): 14%
- inhibition of growth at 10 µM (BT-549): 4%
- growth inhibition (GI) (OVCAR-3): inactive
- inhibition of growth at 10 µM (NCI-H522): 1%
- growth inhibition (GI) (A498): inactive
- growth inhibition (GI) (UACC-62): inactive
- inhibition of growth at 10 µM (MOLT-4): 5%
